This passage reports IC50 results from patent US9694016B2 (Novartis AG, priority 2013, dated 2017).

SMILES strings stand for the structures.

b-Raf (V600E), sequence (P15056 whole entry V600E): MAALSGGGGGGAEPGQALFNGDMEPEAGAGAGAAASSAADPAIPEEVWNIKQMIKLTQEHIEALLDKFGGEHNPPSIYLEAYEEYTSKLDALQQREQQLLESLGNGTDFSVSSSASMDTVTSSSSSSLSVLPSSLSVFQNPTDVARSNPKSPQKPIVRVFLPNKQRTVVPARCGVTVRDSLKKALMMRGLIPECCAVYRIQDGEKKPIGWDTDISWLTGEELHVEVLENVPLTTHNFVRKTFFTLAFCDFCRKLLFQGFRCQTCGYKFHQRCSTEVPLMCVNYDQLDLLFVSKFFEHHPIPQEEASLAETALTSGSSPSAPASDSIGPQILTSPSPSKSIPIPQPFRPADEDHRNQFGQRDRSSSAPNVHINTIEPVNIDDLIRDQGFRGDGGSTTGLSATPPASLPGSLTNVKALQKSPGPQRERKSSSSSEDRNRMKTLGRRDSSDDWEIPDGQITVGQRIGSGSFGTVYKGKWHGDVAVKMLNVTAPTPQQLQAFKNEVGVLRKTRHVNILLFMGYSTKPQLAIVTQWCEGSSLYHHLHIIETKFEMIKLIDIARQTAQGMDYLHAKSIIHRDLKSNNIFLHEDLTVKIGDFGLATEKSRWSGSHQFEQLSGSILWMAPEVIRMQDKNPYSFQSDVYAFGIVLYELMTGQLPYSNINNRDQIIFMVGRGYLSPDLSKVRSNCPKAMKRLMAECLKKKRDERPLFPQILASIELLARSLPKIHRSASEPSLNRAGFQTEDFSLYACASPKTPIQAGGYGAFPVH

The first test addresses b-Raf (V600E) (Homo sapiens (Human), UniProt P15056, V600E). Conditions: read-out: b-Raf IC-50; AlphaScreen, 60 min pre-incubation, 3 hours reaction.
For the molecule `COc1cccc(NC(=O)c2ccc(C)c(-c3cc(N4CCOCC4)c(=O)n(C)c3)c2)c1` [Example 440, N-(3-methoxyphenyl)-4-methyl-3-(1-methyl-5-morpholino-6-oxo-1,6-dihydropyridin-3-yl)benzamide], the IC50 was found to be 93.9 nM.

For the molecule `Cc1ccc(NC(=O)c2ccnc(S(C)(=O)=O)c2)cc1-c1cc(N2CCOCC2)c(OC2CCOCC2)nn1` [Example 582, N-(4-methyl-3-(5-morpholino-6-((tetrahydro-2H-pyran-4-yl)oxy)pyridazin-3-yl)phenyl)-2-(methylsulfonyl)isonicotinamide], the IC50 was 0.8 nM.

As for `CCOc1nnc(-c2cc(NC(=O)c3cnnc(C(C)(C)C#N)c3)ccc2C)cc1N1CCOCC1` [Example 567, 6-(2-cyanopropan-2-yl)-N-(3-(6-ethoxy-5-morpholinopyridazin-3-yl)-4-methylphenyl)pyridazine-4-carboxamide], the IC50 turned out to be 2 nM.

With `CCNc1nc(-c2cc(NC(=O)c3cccc(-c4nnco4)c3)ccc2C)cc(N2CCOCC2)n1` [Example 699, N-(3-(2-(ethylamino)-6-morpholinopyrimidin-4-yl)-4-methylphenyl)-3-(1,3,4-oxadiazol-2-yl)benzamide], the IC50 was 1.7 nM.

For `Cc1ncc(NC(=O)c2ccnc(C(C)(C)C#N)c2)cc1-c1cc(N2CCOCC2)n2nccc2n1` [Example 791, 2-(2-cyanopropan-2-yl)-N-(6-methyl-5-(7-morpholinopyrazolo[1,5-a]pyrimidin-5-yl)pyridin-3-yl)isonicotinamide], the IC50 amounted to 11.4 nM.

For the molecule `CCNc1nc(-c2cc(NC(=O)c3cnnc(C4CC4)c3)cnc2C)cc(N2CCOCC2)n1` [Example 727, 6-cyclopropyl-N-(5-(2-(ethylamino)-6-morpholinopyrimidin-4-yl)-6-methylpyridin-3-yl)pyridazine-4-carboxamide], the IC50 was determined as 8.5 nM.

For `Cc1ncc(NC(=O)c2ccnc(C(C)(C)C#N)c2)cc1-c1cc(N2CCOCC2)c(=O)n(C)n1` [Example 645, 2-(2-cyanopropan-2-yl)-N-(6-methyl-5-(1-methyl-5-morpholino-6-oxo-1,6-dihydropyridazin-3-yl)pyridin-3-yl)isonicotinamide], the IC50 worked out at 53.4 nM.

As to `CCNc1nc(-c2cc(NC(=O)c3ccnc(C(C)(C)C#N)c3)ccc2C)cc(N2CCOC[C@H]2C)n1` [Example 711, (R)-2-(2-cyanopropan-2-yl)-N-(3-(2-(ethylamino)-6-(3-methylmorpholino)pyrimidin-4-yl)-4-methylphenyl)isonicotinamide], the IC50 turned out to be 5.6 nM.

Staying with this test, now noted: read-out: b-Raf IC-50; AlphaScreen, 60 min pre-incubation, reaction 3 hours at room temperature.
In the case of `Cc1ccc(NC(=O)c2cnnc(C(C)(C)C#N)c2)cc1-c1cc(NCCO)nc(N2CCOCC2)c1F` [Example 1012, 6-(2-cyanopropan-2-yl)-N-(3-(3-fluoro-6-((2-hydroxyethyl)amino)-2-morpholinopyridin-4-yl)-4-methylphenyl)pyridazine-4-carboxamide], the IC50 worked out at 70.6 nM.

As for `CCOc1nnc(-c2cc(C(=O)Nc3ccnc(C(C)(F)F)c3)ccc2C)cc1N1CCOCC1` [Example 1020, N-(2-(1,1-difluoroethyl)pyridin-4-yl)-3-(6-ethoxy-5-morpholinopyridazin-3-yl)-4-methylbenzamide], the IC50 was determined as 7.72 nM.

As to `Cc1ncc(NC(=O)c2cccc(S(C)(=O)=O)c2)cc1-c1cnc(OC2CCOCC2)c(N2CCOCC2)c1` [Example 937, N-(2-methyl-5′-morpholino-6′-((tetrahydro-2H-pyran-4-yl)oxy)-[3,3′-bipyridin]-5-yl)-3-(methylsulfonyl)benzamide], the IC50 was 4.53 nM.

On to `Cc1ccc(NC(=O)c2ccnc(C(F)F)c2)cc1-c1cc(N2CCOCC2)nc(N2CC(C)(O)C2)c1` [Example 1072, 2-(difluoromethyl)-N-(3-(2-(3-hydroxy-3-methylazetidin-1-yl)-6-morpholinopyridin-4-yl)-4-methylphenyl)isonicotinamide], for which the IC50 came to 1.74 nM.

In the case of `Cc1ccc(NC(=O)c2ccnc(C(F)F)c2)cc1-c1cc(N2CCOCC2)nc(NCCO)c1F` [Example 1016, 2-(difluoromethyl)-N-(3-(3-fluoro-2-((2-hydroxyethyl)amino)-6-morpholinopyridin-4-yl)-4-methylphenyl)isonicotinamide], the IC50 was 2.27 nM.

For `Cc1ncc(NC(=O)c2cc(C(C)(C)O)ccn2)cc1-c1cnc(OC2CC3(COC3)C2)c(N2CCOCC2)c1` [Example 969, N-(6′-(2-oxaspiro[3.3]heptan-6-yloxy)-2-methyl-5′-morpholino-[3,3′-bipyridin]-5-yl)-4-(2-hydroxypropan-2-yl)picolinamide], the IC50 was 18 nM.

On to `CCC(F)(F)c1cc(C(=O)Nc2cnc(C)c(-c3cnc(OC(F)F)c(N4CCOCC4)c3)c2)ccn1` [Example 983, N-(6′-(difluoromethoxy)-2-methyl-5-morpholino-[3,3′-bipyridin]-5-yl)-2-(1,1-difluoropropyl)isonicotinamide], for which the IC50 worked out at 2.99 nM.

As to `Cc1ncc(NC(=O)c2ccnc(C(F)(F)F)c2)cc1-c1cc(N2CCOCC2)nc(N2CCOCC2)c1` [Example 1120, N-(2-methyl-2′,6′-dimorpholino-[3,4′-bipyridin]-5-yl)-2-(trifluoromethyl)isonicotinamide], the IC50 came to 1.63 nM.

As to `Cc1ccc(NC(=O)c2cccc(C(F)(F)F)c2)cc1-c1cc(NCC(O)C(F)(F)F)nc(N2CCOCC2)c1` (stereo not shown) [Example 1063, N-(4-methyl-3-(2-morpholino-6-((3,3,3-trifluoro-2-hydroxypropyl)amino)pyridin-4-yl)phenyl)-3-(trifluoromethyl)benzamide], the IC50 came out at 1.48 nM.

Take `Cc1ncc(NC(=O)c2cccc(C(F)(F)F)c2)cc1-c1cc(N2CCOCC2)c2nccn2n1` [Example 867, N-(6-methyl-5-(8-morpholinoimidazo[1,2-b]pyridazin-6-yl)pyridin-3-yl)-3-(trifluoromethyl)benzamide]: the IC50 worked out at 1.4 nM.

With `Cc1ncc(NC(=O)c2ccnc(C(C)(C)C#N)c2)cc1-c1cnc(OC2CC3(COC3)C2)c(N2CCOCC2)c1` [Example 967, N-(6′-(2-oxaspiro[3.3]heptan-6-yloxy)-2-methyl-5′-morpholino-[3,3′-bipyridin]-5-yl)-2-(2-cyanopropan-2-yl)isonicotinamide], the IC50 came out at 5.74 nM.

For the molecule `CCn1cc(C(=O)Nc2cnc(C)c(-c3cc(N4CCOCC4)nc(N4CCOCC4)c3)c2)cc(C(F)(F)F)c1=O` [Example 1125, 1-ethyl-N-(2-methyl-2′,6′-dimorpholino-[3,4′-bipyridin]-5-yl)-6-oxo-5-(trifluoromethyl)-1,6-dihydropyridine-3-carboxamide], the IC50 was found to be 10 nM.

For `Cc1ccc(NC(=O)c2ccnc(C(F)(F)F)c2)cc1-c1cc(NC2CCOC2)nc(N2CCOCC2)c1` (stereo not shown) [Example 1054, N-(4-methyl-3-(2-morpholino-6-((tetrahydrofuran-3-yl)amino)pyridin-4-yl)phenyl)-2-(trifluoromethyl)isonicotinamide], the IC50 was determined as 1.18 nM.

Turning to `Cc1ccc(NC(=O)c2cc(C(C)(F)F)ccn2)cc1-c1cc(N2CCOCC2)c(=O)n(C)c1` [Example 905, 4-(1,1-difluoroethyl)-N-(4-methyl-3-(1-methyl-5-morpholino-6-oxo-1,6-dihydropyridin-3-yl)phenyl)picolinamide], the IC50 stood at 2.33 nM.

The test is the same for the next values; noted with them: read-out: b-Raf IC-50; Table 2; AlphaScreen, 3 hours reaction.
As to `CCOc1ncc(-c2cc(NC(=O)c3cccc(C(F)F)c3)ccc2C)cc1N1CCOCC1` [Example 231, 3-(difluoromethyl)-N-(3-(6-ethoxy-5-morpholinopyridin-3-yl)-4-methylphenyl)benzamide], the IC50 was 0.4 nM.

Take `Cc1nn(C)cc1C(=O)Nc1cnc(C)c(-c2cc(N3CCOCC3)c(=O)n(C)c2)c1` [Example 374, N-(1′,2-dimethyl-5′-morpholino-6′-oxo-1′,6′-dihydro-[3,3′-bipyridin]-5-yl)-1,3-dimethyl-1H-pyrazole-4-carboxamide]: the IC50 is 3400 nM.

For `COc1ccc(C(=O)Nc2cnc(Cl)c(-c3cc(N4CCOCC4)c(=O)n(C)c3)c2)cc1C(F)(F)F` [Example 408, N-(2-chloro-1′-methyl-5′-morpholino-6′-oxo-1′,6′-dihydro-[3,3-bipyridin]-5-yl)-4-methoxy-3-(trifluoromethyl)benzamide], the IC50 was 6.8 nM.

For `Cc1ncc(NC(=O)c2cccc(C(F)(F)F)c2)cc1-c1cnc(OC(C)C)c(N2CCOCC2)c1` [Example 134, N-(6′-isopropoxy-2-methyl-5′-morpholino-[3,3′-bipyridin]-5-yl)-3-(trifluoromethyl)benzamide], the IC50 is 2.4 nM.

`COc1ncc(-c2cc(NC(=O)c3cnnc(C(F)(F)F)c3)cnc2Cl)cc1N1CCOCC1` [Example 263, N-(2-chloro-6′-methoxy-5′-morpholino-[3,3′-bipyridin]-5-yl)-6-(trifluoromethyl)pyridazine-4-carboxamide]: the IC50 was 9 nM.

With `Cc1ccc(NC(=O)c2ccnc(S(C)(=O)=O)c2)cc1-c1ccnc(N2CCOCC2)c1` [Example 73, N-(4-methyl-3-(2-morpholinopyridin-4-yl)phenyl)-2-(methylsulfonyl)isonicotinamide], the IC50 is 1.9 nM.

`Cc1ccc(NC(=O)c2ccnc(C(C)C)c2)cc1-c1cc(N2CCOCC2)c(=O)n(C)c1` [Example 348, 2-isopropyl-N-(4-methyl-3-(1-methyl-5-morpholino-6-oxo-1,6-dihydropyridin-3-yl)phenyl)isonicotinamide]: the IC50 turned out to be 2.7 nM.

Consider `Cc1ccc(NC(=O)c2cccc(C(F)(F)F)c2)cc1-c1cc(N2CCOCC2)c(=O)n(CC#N)c1` [Example 147, N-(3-(1-(cyanomethyl)-5-morpholino-6-oxo-1,6-dihydropyridin-3-yl)-4-methylphenyl)-3-(trifluoromethyl)benzamide], for which the IC50 turned out to be 1 nM.

Consider `Cc1ncc(NC(=O)c2ccnc(C(F)F)c2)cc1-c1cc(N2CCOCC2)c(=O)n(C)c1` [Example 392, 2-(difluoromethyl)-N-(1′,2-dimethyl-5′-morpholino-6′-oxo-1′,6′-dihydro-[3,3′-bipyridin]-5-yl)isonicotinamide], for which the IC50 was determined as 15.3 nM.
